Measured values as given in patent publication US10925890B2, “Use of dextran sulfate” (TX MEDIC AB, priority 2014, dated 2021).

Legend:
[1] = Body weight, mouse critical limb ischemia study; assay type: in vivo
Excerpt: In total 60 male Balb/c mice, 9 weeks old, having an average body weight of 24.7 g at study initiation (day 0) were obtained from Harlan Laboratories, Israel. The minimal and maximal weight recorded in each group was within the range of ±20% of the group mean. Animals were handled according to the National Institute of Health (NIH) and the Association for Assessment and Accreditation of Laboratory Animal Care (AAALAC). Animals were housed in polysufone (PSU) cages (5/cage) measuring […], with stainless steel top grill having facilities for pelleted food and drinking water in glass-clear polycarbonate bottle; bedding: steam sterilized clean paddy husk (Harlan, Sani-chip, Cat #: 106S8216) was used and bedding material was changed along with the cage at least twice a week. Animals were fed ad libitum a commercial rodent diet (Teklad Certified Global 18% Protein Diet cat #: 106S8216). Animals had free access to autoclaved and acidified drinking water (pH between 2.5 and 3.5) obtained from the municipality supply. Animals were housed under standard laboratory conditions, air conditioned and filtered (HEPA F6/6) with adequate fresh air supply (minimum 15 air changes/hour). Animals were kept in a climate controlled environment. Temperatures range was 20-24° C. and RH range was 30-70% with 12 hours light and 12 hours dark cycle.
Body weight was measured on study day −1 prior to surgery and once a week thereafter. […] From day 14 onwards a gradual increase in weight was observed. Accordingly, between day 0 and day 35 the mean increase in body weight ranged between 0.4 g to 1.7 g, see Table 2.

[2] = test system: Critical Hind-Limb Ischemia Mouse Model; assay: Blood flow by non-contact laser Doppler, mouse hind-limb ischemia; assay type: in vivo; settings: for folds increase in the mean blood flow due to dextran sulfate treatment: vs vehicle control 1M; for Mean change in blood flow day 35 vs. day 1: operated limb, vehicle 19.5
Procedure: Blood flows in legs from both sides were measured with a non-contact laser Doppler before surgery on day −1 and on days: 1, 7, 14, 21, 28 and 35 post operation. Blood flow measurements was expressed as the ratio of the flow in the ischemic limb to that in the normal limb.

[3] = Body weight, tMCAO rat-stroke study; assay type: in vivo; settings: 30 mg/kg 3 times a week or 15 mg/kg daily s.c., 28 days
Excerpt: In total 46 male SD rats having an average body weight of 342 g at study initiation (Day 0) were obtained from Harlan Laboratories, Israel. The minimal and maximal weight recorded in each group was within a range of ±20% of the group mean weight. Animals were handled according to guidelines of the National Institute of Health (NIH) and the Association for Assessment and Accreditation of Laboratory Animal Care (AAALAC). Animals were housed in polyethylene cages (5/cage) measuring 35×30×15 cm, with stainless steel top grill facilitating pelleted food and drinking water in plastic bottle; bedding: steam sterilized clean paddy husk (Harlan, Sani-chip cat #:2018SC+F) was used and bedding material was changed along with the cage at least twice a week. Animals were fed ad libitum a commercial rodent diet (Teklad Certified Global 18% Protein Diet cat #: 106S8216). Animals had free access to autoclaved and acidified drinking water (pH between 2.5 and 3.5) obtained from the municipality supply. Animals were housed under standard laboratory conditions, air-conditioned and filtered (HEPA F6/6) with adequate fresh air supply (Minimum 15 air changes/hour). Animals were kept in a climate-controlled environment. Temperatures range was 20-24° C. and RH range was 30-70% with 12 hours light and 12 hours dark cycle. […]

[4] = test system: Rat Hind-Limb Ischemia Model; assay: In vivo assessment of limb function, rat hind-limb ischemia; settings: for Incidence of limb function score 0 / Incidence of limb function score 1 / Incidence of limb function score 2 / Incidence of limb function score 3: Day 28
Procedure: The femoral artery and vein were ligated twice with 4-0 silk thread and transected between the ligatures. The wound was closed with 3-0 silk thread and the rats were allowed to recover.
Animals in group 4M and 5M were injected s.c. once on Day 8, see Table 12.
Semi-quantitative assessment of impaired use of the ischemic limb was performed once a week post-surgery using the scale presented in Table 7. Scoring was performed by personnel blinded to the treatment.

[5] = test system: Rat Hind-Limb Ischemia Model; assay: Immunohistochemistry, SMA and Factor 8 capillaries density, rat hind-limb ischemia; assay type: in vivo; settings: groups 2M-5M vs control 1M; Day 28
Procedure: Four sections of muscle samples were taken from the same areas of six animals from groups 1M, 2M, 3M, 4M, 5M and stained for blood vessels using antibodies against SMA and Factor 8. The area of blood vessels was evaluated by using image analysis. Density was expressed as the mean number of capillaries per field of view. Total vessels represented all blood vessels in the measured area. The number of SMA and factor 8 positive capillaries in right ischemic limb was larger in all dextran sulfate treated groups 2M-5M compared to the control group 1M on Day 28 of the study, see FIG. 23. SMA and factor 8 positive staining are considered as an indication for small capillaries formation in rats, and thus the obtained results supported blood flow improvement observed in the animal groups treated with dextran sulfate. Statistical analysis performed using two-way ANOVA followed by Bonferroni multiple comparisons, */** indicate p<0.0510.01.

[6] = group 2M, 30 mg/kg s.c. 3 times a week
[7] = group 3M, 30 mg/kg (as printed in Table 12) s.c. 3 times a week
[8] = group 4M, 30 mg/kg s.c. administered once
[9] = group 5M, 3 mg/kg s.c. administered once

For Dextran sulfate, the “Mean weight change from day 0 to day 35” value ([1]; group 2M, 10 mg/kg s.c. 3 times/week from day 8) was 1.0 g, the “Mean weight change from day 0 to day 35” value ([1]; group 3M, 30 mg/kg s.c. 3 times/week from day 8) was 1.7 g and the “Mean weight change from day 0 to day 35” value ([1]; group 4M, 30 mg/kg s.c. 1 time/week from day 8) was 1.0 g. The “Mean body weight, differences between the groups” value ([1]; throughout the study, two-way ANOVA, Bonferroni) was “no statistically significant differences”, the “Blood perfusion compared to the vehicle treated control” value ([2]; 30 mg/kg s.c. three times a week or once a week) was “significantly restored blood perfusion” and the “folds increase in the mean blood flow due to dextran sulfate treatment” value (shortened to “folds increase”) ([2]; group 2M, 10 mg/kg 3 times/week) was 2.2 folds. For the same substance, the “Mean change in blood flow day 35 vs. day 1” value (“Mean change” below) ([2]; group 2M, 10 mg/kg s.c. 3 times/week) was 46.7 units, the “folds increase” value ([2]; group 3M, 30 mg/kg 3 times/week) was 3.0 folds and the “Mean change” value ([2]; group 3M, 30 mg/kg s.c. 3 times/week) was 59.3 units. For the same substance, the “folds increase” value ([2]; group 4M, 30 mg/kg 1 time/week) was 2.8 folds, the “Mean change” value ([2]; group 4M, 30 mg/kg s.c. 1 time/week) was 51.1 units and the “Body weight, differences among treatment groups” value [3] was “no statistically significant differences”. The “Incidence of limb function score 0” value [4, 6] was 100%, the “Incidence of limb function score 1” value [4, 6] was 0% and the “Incidence of limb function score 2” value [4, 6] was 0%. For the same substance, the “Incidence of limb function score 3” value [4, 6] was 0%, the “Incidence of limb function score 0” value [4, 7] was 88% and the “Incidence of limb function score 1” value [4, 7] was 12%. For the same substance, the “Incidence of limb function score 2” value [4, 7] was 0%, the “Incidence of limb function score 3” value [4, 7] was 0% and the “Incidence of limb function score 0” value [4, 8] was 100%. The “Incidence of limb function score 1” value [4, 8] was 0%, the “Incidence of limb function score 2” value [4, 8] was 0% and the “Incidence of limb function score 3” value [4, 8] was 0%. The “Incidence of limb function score 0” value [4, 9] was 94%, the “Incidence of limb function score 1” value [4, 9] was 6% and the “Incidence of limb function score 2” value [4, 9] was 0%. For the same substance, the “Incidence of limb function score 3” value [4, 9] was 0%, the “Limb function score, treated groups vs control” value ([4]; groups 2M, 3M, 4M and 5M vs 1M, Day 14 through Day 28) was “statistically significant differences” and the “Number of SMA and factor 8 positive capillaries in right ischemic limb” value [5] was “larger”.
